Source: PubChem BioAssay (NCI)
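These data come from cells grown in 96-well plates and exposed to compound for 48 hours at five concentrations. GI50 = concentration required for 50% inhibition of growth. TGI: concentration producing complete growth inhibition.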

Columns and labels:
Assay in all cases: NCI anticancer screen, dose series, 48 h
CCRF-CEM leukemia = system: CCRF-CEM leukemia
HCC-2998 colon = system: HCC-2998 colon
HCT-15 colon = system: HCT-15 colon
K-562 leukemia = system: K-562 leukemia
M14 melanoma = system: M14 melanoma
OVCAR-5 ovarian = system: OVCAR-5 ovarian
SF-268 CNS = system: SF-268 CNS
UACC-257 melanoma = system: UACC-257 melanoma
A498 renal = system: A498 renal
HS 578T breast = system: HS 578T breast
OVCAR-8 ovarian = system: OVCAR-8 ovarian

| Compound | TGI (CCRF-CEM leukemia) | TGI (HCC-2998 colon) | TGI (HCT-15 colon) | TGI (K-562 leukemia) | TGI (M14 melanoma) | TGI (OVCAR-5 ovarian) | TGI (SF-268 CNS) | TGI (UACC-257 melanoma) | TGI (A498 renal) | TGI (HS 578T breast) | TGI (OVCAR-8 ovarian) | GI50 (A498 renal) | GI50 (CCRF-CEM leukemia) | GI50 (HCC-2998 colon) | GI50 (HS 578T breast) | GI50 (M14 melanoma) | GI50 (OVCAR-5 ovarian) | GI50 (OVCAR-8 ovarian) | GI50 (SF-268 CNS) | GI50 (UACC-257 melanoma) |
| --- | --- | --- | --- | --- | --- | --- | --- | --- | --- | --- | --- | --- | --- | --- | --- | --- | --- | --- | --- | --- |
| O=c1ccc2nc3cc(Br)ccc3sc-2c1 | 72.5 µM | > 100 µM | > 100 µM | > 100 µM | > 100 µM | > 100 µM | > 100 µM | > 100 µM | – | – | – | – | – | – | – | – | – | – | – | – |
| C[N+]1(CCC(=O)c2ccco2)CC2CCC(CC2)C1 (stereo not drawn) | – | – | > 100 µM | > 100 µM | > 100 µM | > 100 µM | > 100 µM | > 100 µM | > 100 µM | > 100 µM | > 100 µM | – | – | – | – | – | – | – | – | – |
| Nc1c(C(=O)O)nnc2cc(Cl)c(Cl)cc12 | > 100 µM | > 100 µM | > 100 µM | > 100 µM | > 100 µM | > 100 µM | > 100 µM | > 100 µM | > 100 µM | > 100 µM | > 100 µM | – | – | – | – | – | – | – | – | – |
| COc1ccc(C(=O)C2=NON3OC23C(=O)c2ccc(OC)cc2)cc1 (stereo not drawn) | – | 32.8 µM | 36.6 µM | 8.29 µM | 31 µM | 36.7 µM | 40.2 µM | 34.9 µM | 18.2 µM | – | 21 µM | – | – | – | – | – | – | – | – | – |
| CN(C)c1ccc(C=Nc2ccc(Oc3ccc(Cl)cc3)c(Cl)c2)cc1 | 57.7 µM | 38.9 µM | 41.7 µM | – | 87.1 µM | > 100 µM | 28.1 µM | 44.6 µM | – | 33.2 µM | 36.8 µM | – | – | – | – | – | – | – | – | – |
| COCC1CCCN1c1ccc(C=N/C(C#N)=C(\N)C#N)cc1 (stereo not drawn) | > 100 µM | > 100 µM | – | – | > 100 µM | > 100 µM | > 100 µM | > 100 µM | > 100 µM | > 100 µM | > 100 µM | > 100 µM | 3.22 µM | > 100 µM | > 100 µM | > 100 µM | > 100 µM | 45.3 µM | 67.8 µM | > 100 µM |
| COCCNCc1ccc(-c2cc3nccc(Oc4ccc(NC(=S)NC(=O)Cc5ccc(F)cc5)cc4F)c3s2)nc1 | – | 26.9 µM | – | – | – | 13.6 µM | 4.73 µM | 3.52 µM | 8.71 µM | 4.91 µM | 5.12 µM | 2.11 µM | – | 4.68 µM | 1.81 µM | – | 3.05 µM | 2.17 µM | 1.88 µM | 1.84 µM |
| Cn1c(=O)[nH]c2nncnc2c1=O | > 625 µM | > 442 µM | > 625 µM | > 519 µM | – | > 625 µM | > 625 µM | 302 µM | 475 µM | – | > 62.5 µM | – | – | – | – | – | – | – | – | – |
| Cn1cnc([N+](=O)[O-])c1Sc1nc(N)nc2c1ncn2C1OC(CO)C(O)C1O (stereo not drawn) | > 100 µM | 15.3 µM | > 100 µM | > 100 µM | > 100 µM | > 100 µM | > 100 µM | > 100 µM | – | > 100 µM | > 100 µM | – | – | – | – | – | – | – | – | – |
| COc1cc2oc(=O)ccc2cc1C(=O)CC(C)C | > 100 µM | > 100 µM | > 100 µM | > 100 µM | > 100 µM | > 100 µM | > 100 µM | > 100 µM | > 100 µM | > 100 µM | > 100 µM | – | – | – | – | – | – | – | – | – |
| Cc1coc2c1C[C@@]1(C)[C@H](CCC[C@@H]1C)[C@H]2O | > 100 µM | > 100 µM | > 100 µM | > 100 µM | > 100 µM | > 100 µM | > 100 µM | 88.3 µM | – | > 100 µM | > 100 µM | – | – | – | – | – | – | – | – | – |
| Nc1ncnc2c1sc1nc3ccccc3n12 | > 100 µM | > 100 µM | > 100 µM | > 100 µM | > 100 µM | > 100 µM | > 100 µM | > 100 µM | > 100 µM | > 96.4 µM | > 100 µM | – | – | – | – | – | – | – | – | – |
| O=c1[nH]c(Nc2ccc(Cl)c(C(F)(F)F)c2)nc2nc[nH]c12 | 45.4 µM | 57.4 µM | > 100 µM | > 100 µM | > 100 µM | > 100 µM | > 100 µM | > 100 µM | 60.9 µM | > 100 µM | > 100 µM | – | – | – | – | – | – | – | – | – |
| N#CC12Cc3cc4c(cc3-c3cccc(c31)CCN2C(=O)c1ccccc1)OCO4 (stereo not drawn) | > 100 µM | > 100 µM | – | > 100 µM | > 100 µM | > 100 µM | > 100 µM | > 100 µM | > 100 µM | – | > 100 µM | – | – | – | – | – | – | – | – | – |
| OCc1cn(C(c2ccccc2)(c2ccccc2)c2ccccc2)cn1 | > 100 µM | > 100 µM | > 100 µM | > 100 µM | > 100 µM | > 100 µM | – | > 100 µM | – | 95.7 µM | > 100 µM | – | – | – | – | – | – | – | – | – |
| COc1ccc2nc3c(C(=O)NCCN(C)C)cccc3cc2c1 | 8.14 µM | 16.2 µM | 9.84 µM | 17.1 µM | – | 5.9 µM | 12.1 µM | 5.01 µM | 3.08 µM | – | 4.46 µM | – | – | – | – | – | – | – | – | – |
| CC(C)(C)OC(=O)NC(CCCCNC(=O)OCc1ccccc1)C(=O)NCCNc1ccc(NCCNC(=O)C(CCCCNC(=O)OCc2ccccc2)NC(=O)OC(C)(C)C)c2c1C(=O)c1ccccc1C2=O (stereo not drawn) | > 100 µM | > 100 µM | > 100 µM | > 100 µM | > 100 µM | > 100 µM | > 64.6 µM | > 100 µM | > 100 µM | > 49.7 µM | > 78.1 µM | – | – | – | – | – | – | – | – | – |
